Measurements as given in article PMC8428568, “Discovery of re-purposed drugs that slow SARS-CoV-2 replication in human cells” (PLoS Pathogens, 2021).
Where a name gives a salt, the structure may show the parent alone. Read-outs that look alike come from different tables or passages of the source.

Tests used:
[1] = test system: SARS-CoV-2-ΔOrf7a-NLuc virus; assay: microbe, parasite or virus in culture; type: cell-based
recombinant NLuc = type: biochemical
[2] = test system: SARS-CoV-2-ΔOrf7a-NLuc virus; assay: microbe, parasite or virus in culture; type: cell-based; conditions: for activity at 10 µM: Severe acute respiratory syndrome coronavirus 2, Vero, 72 h, read-out: Mean relative luminescence (n=4)
[3] = HUH7 screen, […], relative luminescence
[4] = Vero cells, 10 μM, 1 = DMSO-treated infected cells
[5] = recombinant NLuc activity relative to DMSO
[6] = recombinant NLuc, first read column
[7] = recombinant NLuc, fourth read column
[8] = recombinant NLuc, third read column
[9] = […], 1 = untreated, 0 = total inhibition
[10] = Vero screen, […], relative luminescence

SMILES | Mean relative luminescence (n=4) [1, 3] | PrestoBlue relative viability (Vero cells; [4]) | PrestoBlue relative viability (Vero cells; Vero screen) | Relative Recombinant NLUC (recombinant NLuc; [5]) | Reads Counts per second (read 1) (recombinant NLuc; [6]) | Reads Counts per second (read 4) (recombinant NLuc; [7]) | Reads Counts per second (read 3) (recombinant NLuc; [8]) | % activity in Vero 100PFU screen [2] | activity at 10 µM [2, 9] | Mean relative luminescence (n=4) [2, 10] | PrestoBlue relative viability (HUH7 cells; HUH7 screen) | further results
CC[C@H](C)C(=O)O[C@H]1C[C@@H](C)C=C2C=C[C@H](C)[C@H](CC[C@@H]3C[C@@H](O)CC(=O)O3)[C@H]21 [Lovastatin] | 0.08758 | 0.5479 | 0.5479 | 0.9319 | 351803 Counts per second | 349914 Counts per second | 353101 Counts per second | 9% | 8.28% | 0.0828 | 1.075 | –
Cl.Cl.Fc1ccc(C(c2ccc(F)cc2)N2CCN(C/C=C/c3ccccc3)CC2)cc1 [Flunarizine 2HCl] | 0.1091 | 2.629 | 2.629 | – | – | – | – | – | – | 0.1133 | 0.9689 | Mean relative luminescence (n=4) [2, 9]: 0.1133
CCOC(=O)C1=C(C)NC(C)=C(C(=O)OCC)C1c1ccccc1/C=C/C(=O)OC(C)(C)C [Lacidipine] | 0.02662 | 0.86 | 0.86 | 0.1601 | 61246 Counts per second | 59492 Counts per second | 60310 Counts per second | 1.49% | 0.0439% | 0.0004392 | 0.9247 | –
O=C(c1ccc(OCCN2CCCCC2)cc1)c1c(-c2ccc(O)cc2)sc2cc(O)ccc12 [Raloxifene HCl] | 0.03646 | 0.579 | 0.579 | 0.8812 | 334037 Counts per second | 335545 Counts per second | 331016 Counts per second | 6% | 2.63% | 0.02628 | 0.5413 | –
Clc1ccc(C(Cn2ccnc2)OCc2ccsc2Cl)c(Cl)c1 (centres unmarked) [Tioconazole] | – | – | – | – | – | – | – | 10% | – | – | – | Mean relative luminescence (n=4) [1]: 0.1247; PrestoBlue relative viability (Vero cells; African green monkey): 1.172; Reads Counts per second (read 1) (recombinant NLuc): 349867 Counts per second; Reads Counts per second (read 3) (recombinant NLuc): 345556 Counts per second; Reads Counts per second (read 4) (recombinant NLuc): 349383 Counts per second; Relative Recombinant NLUC (recombinant NLuc): 0.9221; activity at 10 µM [2]: 7.16%; PrestoBlue relative viability (HUH7 cells; human): 1.129
COC(=O)C[C@](O)(CCCC(C)(C)O)C(=O)O[C@@H]1C(OC)=C[C@]23CCCN2CCc2cc4c(cc2[C@H]13)OCO4 [Homoharringtonine] | 0.0133 | 0.5068 | 0.5068 | – | – | – | – | – | 1.44% | 0.01441 | 0.6794 | –
COc1cccc2c1C(=O)c1c(O)c3c(c(O)c1C2=O)C[C@@](O)(C(C)=O)C[C@@H]3O[C@H]1C[C@H](N)[C@H](O)[C@H](C)O1 [Daunorubicin HCl] | 0.006058 | 0.6965 | 0.6965 | 0.8615 | 319222 Counts per second | 328432 Counts per second | 327409 Counts per second | 5% | 2.1% | 0.02101 | 0.5186 | –
COc1nc2ccc(Br)cc2cc1[C@@H](c1ccccc1)[C@@](O)(CCN(C)C)c1cccc2ccccc12.O=C(O)/C=C/C(=O)O [Bedaquiline fumarate] | 0.1084 | 1.113 | 1.113 | 0.9227 | 351974 Counts per second | 338630 Counts per second | 351293 Counts per second | 3.58% | – | 0.01053 | 0.5224 | Reads Counts per second (read 2) (recombinant NLuc; recombinant NLuc): 352561 Counts per second; Mean relative luminescence (n=4) [2, 9]: 0.01053
Cc1ccc(NC(=O)c2ccc(CN3CCN(C)CC3)cc2)cc1Nc1nc(-c2cccnc2)cs1 [Masitinib (AB1010), Masitinib] | 0.03917 | 1.308 | 1.308 | – | – | – | – | – | 13.4% | 0.1339 | 0.7156 | –
O=C1CCc2ccc(OCCCCN3CCN(c4cccc(Cl)c4Cl)CC3)cc2N1 [Aripiprazole] | 0.008694 | 0.6278 | 0.6278 | – | – | – | – | – | 10.1% | 0.1007 | 0.7416 | –
CCc1cnn2c(NCc3ccc[n+]([O-])c3)cc(N3CCCC[C@H]3CCO)nc12 [Dinaciclib (SCH727965), Dinaciclib] | 0.06294 | 0.664 | 0.664 | 0.9134 | 345056 Counts per second | 346073 Counts per second | 342151 Counts per second | 5% | 3.29% | 0.03292 | 0.5934 | –
COC(=O)C1=C(C)NC(C)=C(C(=O)O[C@@H]2CCCN(Cc3ccccc3)C2)[C@@H]1c1cccc([N+](=O)[O-])c1.Cl (racemic) [Benidipine HCl] | 0.003821 | 0.8086 | 0.8086 | 0.1313 | 50508 Counts per second | 49177 Counts per second | 49185 Counts per second | 1.81% | – | 0.003673 | 0.6609 | Reads Counts per second (read 2) (recombinant NLuc; recombinant NLuc): 49563 Counts per second; Mean relative luminescence (n=4) [2, 9]: 0.003673
CN(C)CC/C=C1/c2ccccc2Sc2ccc(Cl)cc21.Cl [Chlorprothixene (hydrochloride)] | 0.03176 | 0.8299 | 0.8299 | 0.9574 | 359664 Counts per second | 361186 Counts per second | 361391 Counts per second | 4.28% | – | 0.0137 | 0.7623 | Mean relative luminescence (n=4) [2, 9]: 0.0137
CC[C@H]1OC(=O)[C@H](C)[C@@H](O[C@H]2C[C@@](C)(OC)[C@@H](O)[C@H](C)O2)[C@H](C)[C@@H](O[C@@H]2O[C@H](C)C[C@H](N(C)C)[C@H]2O)[C@](C)(O)C[C@@H](C)CN(C)[C@H](C)[C@@H](O)[C@]1(C)O [azithromycin] | – | – | – | – | – | – | – | – | – | – | – | effect on virus replication [1]: did show some effects; toxic effects on cells (HUH7 cells; HUH7 cells screen): toxic effects on cells
CCOC(=O)C1=C(COCCN)NC(C)=C(C(=O)OC)C1c1ccccc1Cl (centres unmarked) [Amlodipine Besylate] | 0.03381 | 1.385 | 1.385 | – | – | – | – | – | 12.4% | 0.124 | 0.6859 | –
